From patent publication US11453677B2 (priority 2016, dated 2022)

What was measured:
Type in all cases: cell-based
[1] = test system: influenza virus H1N1 in MDCK cells; details: MOI 0.005, 48 hours, neuraminidase activity, read-out: NA_VIR_H1N1 EC50
Text: (§1) Influenza Virus Neuraminidase Assay (NA Assay)

[2] = test system: influenza virus H3N2 in MDCK cells; details: MOI 0.005, 48 hours, neuraminidase activity, read-out: NA_VIR_H3N2 EC50
Text: as §1

[3] = test system: influenza A virus minigenome (PB2, PB1, PA, NP) RNP_Alaska in 293T cells; experiment: cells; details: HEK-293T, 48 h, read-out: RNP_Alaska EC50
[4] = test system: influenza virus minigenome (PB2, PB1, PA, NP) RNP_Hubei in 293T cells; experiment: cells; details: unidentified influenza virus, HEK-293T, 48 h, read-out: RNP_Hubei EC50
[5] = test system: influenza A virus minigenome (PB2, PB1, PA, NP) RNP_CAL in 293T cells; experiment: cells; details: HEK-293T, 48 h, read-out: RNP_CAL_EC50

Row | SMILES | EC50 [1] | EC50 [2] | EC50 [3] | EC50 [4] | EC50 [5]
1 | O=c1ccn2c(c1O)-c1ncc(C(F)(F)F)n1C[C@@H]2C(c1ccccc1)c1ccccc1 [Example 58, (S)-6-benzhydryl-11-hydroxy-3-(trifluoromethyl)-5H-imidazo[1,2-a]pyrido[2,1-c]pyrazin-10(6H)-one] | 200 nM |  |  |  | 
2 | O=c1ccn2c(c1O)-c1ncc(CN3CCOCC3)n1C[C@@H]2C(c1ccccc1)c1ccccc1 [Example 67, (S)-6-benzhydryl-11-hydroxy-3-(morpholinomethyl)-5,6-dihydro-10H-imidazo[1,2-a]pyrido[2,1-c]pyrazin-10-one] |  | 10000 nM |  |  | 
3 | CNC(=O)c1cnc2n1C[C@H](C(c1ccccc1)c1ccccc1)n1ccc(=O)c(O)c1-2 [Example 69, (S)-6-benzhydryl-11-hydroxy-N-methyl-10-oxo-5,6-dihydro-10H-imidazo[1,2-a]pyrido[2,1-c]pyrazine-3-carboxamide] |  | > 50000 nM |  |  | 
4 | COCCNC(=O)c1cnc2n1C[C@H](C(c1ccccc1)c1ccccc1)n1ccc(=O)c(O)c1-2 [Example 71, (S)-6-benzhydryl-11-hydroxy-N-(2-methoxyethyl)-10-oxo-5,6-dihydro-10H-imidazo[1,2-a]pyrido[2,1-c]pyrazine-3-carboxamide] |  | > 50000 nM |  |  | 
5 | Cn1cnc2c1CN(C(c1ccccc1)c1ccccc1)n1ccc(=O)c(O)c1-2 [Example 82, 5-benzhydryl-10-hydroxy-3-methyl-4,5-dihydroimidazo[4,5-d]pyrido[1,2-b]pyridazin-9(3H)-one] | 1000 nM | 4000 nM |  |  | 
6 | CC(=O)Oc1c2n(ncc1=O)[C@@H](C(c1ccc(F)cc1)c1ccc(F)cc1)Cn1ccnc1-2 [Example 85, (S)-6-(bis(4-fluorophenyl)methyl)-10-oxo-5,6-dihydro-10H-imidazo[2′,1′:3,4]pyrazino[1,2-b]pyridazin-11-yl acetate] |  |  | 19 nM | 49 nM | 22 nM
7 | CC(C)C(=O)Oc1c2n(ncc1=O)[C@@H](C(c1ccc(F)cc1)c1ccc(F)cc1)Cn1ccnc1-2 [Example 86, (S)-6-(bis(4-fluorophenyl)methyl)-10-oxo-5,6-dihydro-10H-imidazo[2′,1′:3,4]pyrazino[1,2-b]pyridazin-11-yl Isobutyrate] |  |  | 30 nM | 47 nM | 21 nM
8 | CC(C)CC(=O)Oc1c2n(ncc1=O)[C@@H](C(c1ccc(F)cc1)c1ccc(F)cc1)Cn1ccnc1-2 [Example 87, (S)-6-(bis(4-fluorophenyl)methyl)-10-oxo-5,6-dihydro-10H-imidazo[2′,1′:3,4]pyrazino[1,2-b]pyridazin-11-yl 3-methylbutanoate] |  |  | 27 nM | 43 nM | 21 nM
9 | COC(=O)OCOc1c2n(ncc1=O)[C@@H](C(c1ccc(F)cc1)c1ccc(F)cc1)Cn1ccnc1-2 [Example 88, (S)-((6-(bis(4-fluorophenyl)methyl)-10-oxo-5,6-dihydro-10H-imidazo[2′,1′:3,4]pyrazino[1,2-b]pyridazin-11-yl)oxy)methyl methyl Carbonate] |  |  | 32 nM | 89 nM | 42 nM
